Reference: patent publication US8663669B2, “Pesticide treatment of soils or substrates with sulphur compounds” (Arkema France, priority 2002, dated 2014)

Columns and labels:
[1] = test system: young tomato plants (13 cm, 3 leaves, JUMBO hybrid); assay: Phytotoxicity on young tomato plants; assay type: in vivo
Procedure: For both types of crop, 4 treatments were performed on 20 plants: • untreated control • 360 kg/ha of DMDS • 540 kg/ha of DMDS • 720 kg/ha of DMDS
Five days after the treatment, the young plants are transplanted into pots 20 cm in diameter and 35 cm in height.
The observations relating to the number of leaves per plant and the visual state of the plants are carried out 15 and 41 days after the transplantation: […]

Phytophthora cactorum = assay: Fungicidal efficacy by gassing, colonized millet grains; assay type: cell-based; parameters: Vitality score Nm (over 12 days): scale not given here; Reduction in viability RV / Reduction in vitality score RNm: unit not given here; conditions: for Reduction in viability RV / Reduction in vitality score RNm: compared with the control
From the text: These four organisms are the following:
Phytophthora cactorum, one of the best known representatives of the Phytophthora family, polyphagous fungi which attack mainly tomato, sweet pepper and strawberry plants, these three crops representing the majority of the worldwide consumption of methyl bromide. Phytophthora cactorum, in particular, attacks mainly the strawberry plant and fruit trees.
• Sclerotinia sclerotiorum: sclerotia • Sclerotium rolfsii: sclerotia • Rhizoctonia solani: colonized barley grains (mycelium and sclerotia) • Phytophthora cactorum: colonized millet grains (mycelium, sporangia and oospores) Preparation of the Fungi (24 h Before the Gassing Operation) 1. Preparation of the sclerotia of Sclerotinia sclerotiorum and of Sclerotium rolfsii: The fungi are cultured on malt agar medium until the sclerotia are obtained. The sclerotia are collected in a sterile manner and stored dry in empty Petri dishes until they are used. The sclerotia used for the trial are over 3 months old and are perfectly dormant. 2. Preparation of Phytophthora cactorum and of Rhizoctonia solani: The millet and barley used for the multiplication of the two fungi are moistened with ultrapure water by immersing for 24 hours. The grains are then slightly drained and then distributed into flasks and autoclaved (3 autoclavings at 110° C. for 20 minutes, 3 times at 24 hour intervals). Fragments of fungal culture are introduced into the flasks which are then incubated at 22° C.±2° C. (white light 18 h) until homogeneous colonization is obtained. The grains are then removed from the flasks in a sterile manner, dried in the sterile stream of a safety cabinet and then stored in the dry state until they are used. Conditions for Gassing and for Desorption
All the batches of fungi to be treated are placed for a few hours at the trial temperature (20° C.). Between 35 and 300 units of fungi or “propagules” (grains or sclerotia) are subjected to gassing during each trial.
Each fumigation chamber comprising to one or more species of fungi corresponds to a glass round-bottomed flask which is impervious to the gas and has a volume of 11 litres. Each round-bottomed flask is equipped with branch connections, one at the bottom for introducing the liquid DMDS, one at the top for collecting the air sample with a syringe.
Before introducing the gas, a partial vacuum (−500 mbar) is established in the round-bottomed flask with a vacuum pump. This makes it possible, on the one hand, to avoid the phenomenon of excess pressure due to the expansibility of DMDS in the round-bottomed flask and, on the other hand, to promote better homogeneity of the air-gas mixture in the first few seconds which follow injection. The DMDS (weighed accurately to the mg) is injected with a syringe, in liquid form, through the bottom branch connection, that is to say under the screen placed at half height of the round-bottomed flask and supporting the batches of fungi. After introducing the product, the internal pressure of the round-bottomed flask is re-established at atmospheric pressure. A magnetic stirrer operates during the entire duration of the treatment in order to properly homogenize the air-gas mixture.
At the end of the gassing, the cover for the round-bottomed flask is removed. One minute after this operation, the batches of fungi gassed are taken out and left in the open air for 15 minutes for desorption of the DMDS. They are then transferred into a Petri dish, the latter remaining open for 5 minutes to allow perfect desorption of the gas. […]

[2] = CT 1 050 g·h/m^3 (C 15.91 g/m^3, T 66 h)
[3] = CT 1 402 g·h/m^3 (C 21.24 g/m^3, T 66 h)
[4] = CT 1 450 g·h/m^3 (C 30.96 g/m^3, T 48 h)
[5] = CT 1 899 g·h/m^3 (C 28.77 g/m^3, T 66 h)
[6] = CT 1 981 g·h/m^3 (C 30.02 g/m^3, T 66 h)
[7] = CT 2 460 g·h/m^3 (C 51.25 g/m^3, T 48 h)
[8] = CT 2 837 g·h/m^3 (C 42.98 g/m^3, T 66 h)
[9] = CT 3 169 g·h/m^3 (C 48.02 g/m^3, T 66 h)
[10] = CT 3 467 g·h/m^3 (C 52.53 g/m^3, T 66 h)
[11] = CT 419 g·h/m^3 (C 17.46 g/m^3, T 24 h)
[12] = CT 625 g·h/m^3 (C 26.04 g/m^3, T 24 h)
[13] = CT 703 g·h/m^3 (C 29.29 g/m^3, T 24 h)
[14] = CT 907 g·h/m^3 (C 37.79 g/m^3, T 24 h)

CSSC [DMDS, dimethyl disulphide]
Visual symptom of phytotoxicity ([1]; 360, 540, 720 kg/ha, 15 and 41 days after transplantation): no visual symptom of phytotoxicity
Average number of leaves per plant ([1]; 360 kg/ha DMDS (formulation A), after 15 days): 5.3
Average number of leaves per plant ([1]; 360 kg/ha DMDS (formulation A), after 41 days): 9.6
Average number of leaves per plant ([1]; 540 kg/ha DMDS (formulation A), after 15 days): 5.3
Average number of leaves per plant ([1]; 540 kg/ha DMDS (formulation A), after 41 days): 9.4
Average number of leaves per plant ([1]; 720 kg/ha DMDS (formulation A), after 15 days): 5.7
Average number of leaves per plant ([1]; 720 kg/ha DMDS (formulation A), after 41 days): 9.8
Difference in number of leaves between untreated control and treated plants ([1]; regardless of the concentration tested (360-720 kg/ha)): no significant difference
Viability V (Phytophthora cactorum; [2]): 95%
Vitality score Nm (over 12 days) (Phytophthora cactorum; [2]): 5.5
Reduction in viability RV (Phytophthora cactorum; [2]): 5.0
Reduction in vitality score RNm (Phytophthora cactorum; [2]): 43.1
Viability V (Phytophthora cactorum; [3]): 97.8%
Vitality score Nm (over 12 days) (Phytophthora cactorum; [3]): 6.6
Reduction in viability RV (Phytophthora cactorum; [3]): 2.2
Reduction in vitality score RNm (Phytophthora cactorum; [3]): 32.2
Viability V (Phytophthora cactorum; [4]): 95%
Vitality score Nm (over 12 days) (Phytophthora cactorum; [4]): 5.4
Reduction in viability RV (Phytophthora cactorum; [4]): 3.4
Reduction in vitality score RNm (Phytophthora cactorum; [4]): 40.7
Viability V (Phytophthora cactorum; [5]): 97.8%
Vitality score Nm (over 12 days) (Phytophthora cactorum; [5]): 5.6
Reduction in viability RV (Phytophthora cactorum; [5]): 2.2
Reduction in vitality score RNm (Phytophthora cactorum; [5]): 42.6
Viability V (Phytophthora cactorum; [6]): 97.8%
Vitality score Nm (over 12 days) (Phytophthora cactorum; [6]): 5.3
Reduction in viability RV (Phytophthora cactorum; [6]): 2.2
Reduction in vitality score RNm (Phytophthora cactorum; [6]): 45.7
Viability V (Phytophthora cactorum; [7]): 43.3%
Vitality score Nm (over 12 days) (Phytophthora cactorum; [7]): 1.7
Reduction in viability RV (Phytophthora cactorum; [7]): 55.9
Reduction in vitality score RNm (Phytophthora cactorum; [7]): 81.2
Viability V (Phytophthora cactorum; [8]): 16.7%
Vitality score Nm (over 12 days) (Phytophthora cactorum; [8]): 0.6
Reduction in viability RV (Phytophthora cactorum; [8]): 83.3
Reduction in vitality score RNm (Phytophthora cactorum; [8]): 93.6
Viability V (Phytophthora cactorum; [9]): 1.1%
Vitality score Nm (over 12 days) (Phytophthora cactorum; [9]): 0.05
Reduction in viability RV (Phytophthora cactorum; [9]): 98.9
Reduction in vitality score RNm (Phytophthora cactorum; [9]): 99.5
Viability V (Phytophthora cactorum; [10]): 0%
Vitality score Nm (over 12 days) (Phytophthora cactorum; [10]): 0
Reduction in viability RV (Phytophthora cactorum; [10]): 100
Reduction in vitality score RNm (Phytophthora cactorum; [10]): 100
Viability V (Phytophthora cactorum; [11]): 91.7%
Vitality score Nm (over 12 days) (Phytophthora cactorum; [11]): 7.7
Reduction in viability RV (Phytophthora cactorum; [11]): 6.8
Reduction in vitality score RNm (Phytophthora cactorum; [11]): 15.5
Viability V (Phytophthora cactorum; [12]): 100%
Vitality score Nm (over 12 days) (Phytophthora cactorum; [12]): 8.05
Reduction in viability RV (Phytophthora cactorum; [12]): −1.7
Reduction in vitality score RNm (Phytophthora cactorum; [12]): 11.9
Viability V (Phytophthora cactorum; [13]): 100%
Vitality score Nm (over 12 days) (Phytophthora cactorum; [13]): 8.3
Reduction in viability RV (Phytophthora cactorum; [13]): −1.7
Reduction in vitality score RNm (Phytophthora cactorum; [13]): 9.1
Viability V (Phytophthora cactorum; [14]): 100%
Vitality score Nm (over 12 days) (Phytophthora cactorum; [14]): 7.2
Reduction in viability RV (Phytophthora cactorum; [14]): −1.7
Reduction in vitality score RNm (Phytophthora cactorum; [14]): 21.2
